# Laboratory results as given in patent US7354711B2, “Methods for inhibiting immunostimulatory DNA associated responses” (University of Iowa Research Foundation, priority 1997, dated 2008).
# How the values were obtained:
# WEHI 231 cells [1] = assay: Inhibition of CpG-ODN 1760 protection against α-sIgM-induced inhibition of [3H] thymidine uptake; assay type: cell-based, mouse
# Procedure: (§1) The assay of [^3H] Thymidine incorporation was carried out as follows. WEHI 231 cells (200 μL at 2×10^5/milliliter, in duplicate or triplicate) were incubated in a 96-well plate (Costar, Cambridge Mass.). Additions were made as indicated. After incubating for 16 hours, 0.5 μCi [methyl-^3H] thymidine (2 Ci/millimole, DuPont NEN, Boston Mass.) was added to each well, and the cells were incubated for another 4 hours. Cellular DNA was then captured onto glass fiber filters (Whatman 934AH) using a cell harvester (Brandel, Gaithersberg Md.). The filters were dried, placed into plastic scintillation vials with 10 milliliters of scintillation cocktail (EconoSafe, Research Products International, Mount Prospect Ill.), and counted in a liquid scintillation counter (Beckman LS-3133 T). The ^3H recovered on the filter was expressed as a fraction of the ^3H added.
# Referring to experiments summarized in FIG. 1, WEHI 231 cells (ca. 2×10^5 per milliliter) were incubated for 16 hours at 37° C. with 10 μgrams/milliliter α-sIgM, 6 μgrams/milliliter ODN 1760, and the indicated concentration of the compound. After 16 hours, 0.5 μCi [^3H] thymidine was added. After 4 more hours incubation, the cellular DNA was harvested onto glass fiber filters. The dry filters were counted in a liquid scintillation counter.
# Each experimental point was the mean of at least duplicate measurements.
# Referring to the experiments summarized in FIG. 3, 10 μgrams/milliliter α-sIgM and the indicated concentrations of ODN 1760 and quinacrine were added simultaneously to WEHI 231 cells. Thymidine incorporation was estimated at 16 hours as described for Example 1.
# Referring to the experiments summarized in FIG. 4, WEHI 231 cells were incubated with α-sIgM and ODN 1760. At times thereafter 0.1 μM quinacrine was added (data shown in the left three bars). Cells were incubated with 10 μgrams/milliliter (α-sIgM and ODN 1760 (6 μgrams/milliliter, phosphorothioate or a phosphodiester ODN with the same sequence as 1760 (PD ODN) (30 μM at time 0 hours and 8 hours; data represented in right six bars in FIG. 4). [^3H] thymidine incorporation was estimated at 16 hours.
# The symbol — indicates no change. Me and Et indicate —CH3 and —CH2CH3 respectively. Aromatic substituents are in the para position except as indicated. The activity is —log10 of the concentration (M) required for half maximal inhibition of CpG-ODN effect on [^3H] thymidine uptake in the presence of α-sIgM.
# WEHI 231 cells [2] = assay: Protection by lipopolysaccharide against α-sIgM-induced inhibition of [3H] thymidine uptake; assay type: cell-based, mouse; settings: 0.1 μM quinacrine, concentration that completely reversed the effect of ODN 1760
# Procedure: as §1, with “added. In a typical experiment, WEHI 231 cells incorporate about 15% of added ^3H.” for “added.”
# In the experiments summarized in FIG. 5, the influence of LPS on α-sIgM-induced suppression of thymidine incorporation was examined.
# Lipopolysaccharide (LPS) was added at the indicated concentration with or without 10 μgrams/milliliter α-sIgM and 0.1 μM quinacrine. The small degree of protection against α-sIgM-induced inhibition of [^3H] thymidine uptake afforded by LPS is not influenced by quinacrine.
# WEHI 231 cells [3] = assay: CpG-ODN-induced IL-6 synthesis (ELISA); assay type: cell-based, mouse; settings: 10 nM
# Procedure: The assay of IL6 was generally carried out as follows. […] After 24 hours, the IL-6 content of the supernatant was assayed by enzyme-linked immunoassay using two monoclonal antibodies in a sandwich technique as described by the manufacturer, using standards supplied (PharMingen, San Diego Calif.).
# WEHI 231 cells [4] = settings: 0.1 μM quinacrine
# Procedure: Unless otherwise noted, cell culture conditions were as follows. WEHI 231 cells (ATTC #CRL 1702) were grown in log phase in a medium of RPMI 1640 supplemented with 10% fetal bovine serum (heat inactivated at 65° C. for one hour), 0.3 grams/Liter of L-glutamine, 50 milligrams/Liter gentamycin, and 0.05 mM 2-mercaptoethanol in a 37° C. humid atmosphere with 5% CO2. WEHI 231 cells were diluted with 0.4% trypan blue in phosphate-buffered saline (PBS) and live cells were counted in a hemocytometer chamber. Cells were resuspended in medium at 2×10^5/milliliter in 24-well tissue culture plates (Costar, Cambridge Mass.). Appropriate additions were made, and the cells were incubated and counted daily. WEHI 231 cells were diluted with fresh medium if the concentration exceeded 7×10^5/milliliter.
# Referring to the experiments summarized in FIG. 2a, WEHI 231 cells (2×10^5 per milliliter) were incubated with or without 6 μgrams/milliliter ODN 1760, 10 μgrams/milliliter α-sIgM, or 0.1 μM quinacrine as indicated. Live cells were counted daily. The cells were diluted in medium if their concentration exceeded 7×10^5 per milliliter.
smiles,measurement,setting,value
CCN(CC)CCCC(C)Nc1c2ccc(Cl)cc2nc2ccc(OC)cc12 (stereo not shown) [quinacrine],Block of CpG-ODN action on subsequent addition (FIG. 4),WEHI 231 cells [1]; 0.1 μM quinacrine added 8 hours after the CpG-ODN,blocked the action of CpG-ODN
same,Block of the action of phosphodiester ODN (FIG. 4),"WEHI 231 cells [1]; 0.1 μM quinacrine, PD ODN 30 μM at 0 and 8 hours",effective in blocking
same,"vs. Chloroquine, fold","WEHI 231 cells [1]; Table 3, 9-aminoacridines",7.76 fold
same,"Activity,-log10 (concentration (M) for half maximal inhibition of CpG-ODN effect on [3H] thymidine uptake in the presence of α-sIgM)","WEHI 231 cells [1]; Table 3, 9-aminoacridines, WEHI 231 cells",7.85
same,Inhibition of the CpG-ODN effect (FIG. 1),"WEHI 231 cells [1]; at nanomolar concentrations, 10 μg/mL α-sIgM, 6 μg/mL ODN 1760",completely inhibited
same,"Inhibition at increasing concentrations of ODN 1760 (non-competitive kinetics, FIG. 3)","WEHI 231 cells [1]; range of concentrations of ODN 1760 and quinacrine, 10 μg/mL α-sIgM",increasing the concentration of ODN 1760 did not overcome the inhibitory effect
same,Effect on the action of LPS (FIG. 5),WEHI 231 cells [2],no effect
same,Reversal of ODN 1760 effect on IL-6 elaboration,WEHI 231 cells [3],completely reversed
same,Influence of compound alone on cell growth and on cell death induced by α-sIgM,WEHI 231 cells [4],influenced neither cell growth nor cell death
same,"Reversal of ODN 1760 protection, cell count over a period of three days (FIG. 2a)","WEHI 231 cells [4]; 6 μg/mL ODN 1760, 10 μg/mL α-sIgM",reversed this protection
